Laboratory results published in patent publication US6897244B2, “Dihydronootkatone and tetrahydronootkatone as repellents to arthropods” (Board of Supervisors of Louisiana State University and …, priority 2002, dated 2005).

How the values were obtained:
[1] = system: fleas; details: previously demonstrated, U.S. Ser. No. 09/932,555; cited from earlier work
[2] = system: Formosan subterranean termites; experiment: Petri dish treated/untreated sand bioassay for repelling activity against termites; assay type: in vivo, Coptotermes formosanus; parameters: key to percent of termites on untreated sand vs expected value of 50% (Chi-Square, p≦0.05): “−” indicates the test was not significantly different from the expected value; “+” indicates the test was significantly different from the expected value
Procedure: A carton nest (colony A) of Formosan subterranean termites was collected in Algiers, Louisiana in November 1997, and held in 250-liter cans. The cans were filled with pine as a food source, and kept at a temperature range of 24-26° C. Moistened corrugated cardboard rolls were used to retrieve termites from the cans. Once the termites migrated to the cardboard rolls, they were gently knocked from the cardboard rolls into clean rectangular plastic trays (40 cm×50 cm). Retrieved termites were isolated from debris by allowing them to cling to sheets of moistened paper towels. The average weight of each termite was 1.21 mg.
To test for effectiveness of nootkatone, 1,10-dihydronootkatone and tetrahydronootkatone in repelling termites, a bioassay was conducted using Petri dishes (5 cm diameter and 1 cm height). To ensure adequate moisture for the termites, 1 ml of a hot agar solution (1.5% in H2O) was spread on the bottom of the Petri dish. After the agar cooled, sand that was treated as described below was spread on the bottom of the Petri dish. For the treated sand, purified 1,10-dihydronootkatone or tetrahydronootkatone were dissolved in 2 ml ethanol, and then diluted to achieve final concentrations of 1, 2, 5, 12.5, 25, 50, and 100 μg/g sand. The solution was mixed with 1 g sand that had been autoclaved and cooled. The control sand was autoclaved sand with only 200 μl ethanol added. One half of the surfaces in the Petri dishes were covered with 1 g treated sand, and the other half with 1 g untreated sand.
The prepared Petri dishes were then used to evaluate the repelling activity against Formosan subterranean termites. Ten worker termites were added to each Petri dish, and the dishes were covered to eliminate light. Five replicate dishes were tested for each concentration and for the control. Termite position was recorded every 15 min during the first hour of testing by counting the number of termites observed on untreated sand. After the first hour, termite position was recorded each hour for 3 hr.
Differences between the percent of termites on untreated sand and an expected value were statistically analyzed by a Chi-Square analysis, using an expected value of 50% and a significance level of p≦0.05.

[3] = system: ticks; details: previously discovered, U.S. Ser. No. 09/932,555; cited from earlier work
[4] = system: ants; details: previously discovered, U.S. Ser. No. 09/932,555; cited from earlier work
[5] = system: cockroaches; details: previously discovered, U.S. Ser. No. 09/932,555; cited from earlier work

Structure (SMILES): C=C(C)C1CCC2=CC(=O)CC(C)C2(C)C1 (centres unmarked) [Nootkatone, 4,4a,5,6,7,8-hexahydro-6-isopropenyl-4,4a-dimethyl-2(3H)-naphthalenone]
- effect on fleas [1]: not affected
- percent of termites on untreated sand vs expected value of 50% (Chi-Square, p≦0.05) ([2]; 2 μg/dish, 0.25 hour): −
- percent of termites on untreated sand vs expected value of 50% (Chi-Square, p≦0.05) ([2]; 2 μg/dish, 0.5 hour): −
- percent of termites on untreated sand vs expected value of 50% (Chi-Square, p≦0.05) ([2]; 2 μg/dish, 0.75 hour): −
- percent of termites on untreated sand vs expected value of 50% (Chi-Square, p≦0.05) ([2]; 2 μg/dish, 1 hour): −
- percent of termites on untreated sand vs expected value of 50% (Chi-Square, p≦0.05) ([2]; 2 μg/dish, 2 hour): −
- percent of termites on untreated sand vs expected value of 50% (Chi-Square, p≦0.05) ([2]; 2 μg/dish, 3 hour): −
- percent of termites on untreated sand vs expected value of 50% (Chi-Square, p≦0.05) ([2]; 5 μg/dish, 0.25 hour): −
- percent of termites on untreated sand vs expected value of 50% (Chi-Square, p≦0.05) ([2]; 5 μg/dish, 0.5 hour): −
- percent of termites on untreated sand vs expected value of 50% (Chi-Square, p≦0.05) ([2]; 5 μg/dish, 0.75 hour): −
- percent of termites on untreated sand vs expected value of 50% (Chi-Square, p≦0.05) ([2]; 5 μg/dish, 1 hour): −
- percent of termites on untreated sand vs expected value of 50% (Chi-Square, p≦0.05) ([2]; 5 μg/dish, 2 hour): −
- percent of termites on untreated sand vs expected value of 50% (Chi-Square, p≦0.05) ([2]; 5 μg/dish, 3 hour): −
- percent of termites on untreated sand vs expected value of 50% (Chi-Square, p≦0.05) ([2]; 12.5 μg/dish, 0.25 hour): −
- percent of termites on untreated sand vs expected value of 50% (Chi-Square, p≦0.05) ([2]; 12.5 μg/dish, 0.5 hour): −
- percent of termites on untreated sand vs expected value of 50% (Chi-Square, p≦0.05) ([2]; 12.5 μg/dish, 0.75 hour): −
- percent of termites on untreated sand vs expected value of 50% (Chi-Square, p≦0.05) ([2]; 12.5 μg/dish, 1 hour): −
- percent of termites on untreated sand vs expected value of 50% (Chi-Square, p≦0.05) ([2]; 12.5 μg/dish, 2 hour): −
- percent of termites on untreated sand vs expected value of 50% (Chi-Square, p≦0.05) ([2]; 12.5 μg/dish, 3 hour): −
- percent of termites on untreated sand vs expected value of 50% (Chi-Square, p≦0.05) ([2]; 25 μg/dish, 0.25 hour): −
- percent of termites on untreated sand vs expected value of 50% (Chi-Square, p≦0.05) ([2]; 25 μg/dish, 0.5 hour): −
- percent of termites on untreated sand vs expected value of 50% (Chi-Square, p≦0.05) ([2]; 25 μg/dish, 0.75 hour): −
- percent of termites on untreated sand vs expected value of 50% (Chi-Square, p≦0.05) ([2]; 25 μg/dish, 1 hour): −
- percent of termites on untreated sand vs expected value of 50% (Chi-Square, p≦0.05) ([2]; 25 μg/dish, 2 hour): −
- percent of termites on untreated sand vs expected value of 50% (Chi-Square, p≦0.05) ([2]; 25 μg/dish, 3 hour): −
- percent of termites on untreated sand vs expected value of 50% (Chi-Square, p≦0.05) ([2]; 50 μg/dish, 0.25 hour): +
- percent of termites on untreated sand vs expected value of 50% (Chi-Square, p≦0.05) ([2]; 50 μg/dish, 0.5 hour): −
- percent of termites on untreated sand vs expected value of 50% (Chi-Square, p≦0.05) ([2]; 50 μg/dish, 0.75 hour): −
- percent of termites on untreated sand vs expected value of 50% (Chi-Square, p≦0.05) ([2]; 50 μg/dish, 1 hour): +
- percent of termites on untreated sand vs expected value of 50% (Chi-Square, p≦0.05) ([2]; 50 μg/dish, 2 hour): −
- percent of termites on untreated sand vs expected value of 50% (Chi-Square, p≦0.05) ([2]; 50 μg/dish, 3 hour): −
- percent of termites on untreated sand vs expected value of 50% (Chi-Square, p≦0.05) ([2]; 100 μg/dish, 0.25 hour): +
- percent of termites on untreated sand vs expected value of 50% (Chi-Square, p≦0.05) ([2]; 100 μg/dish, 0.5 hour): +
- percent of termites on untreated sand vs expected value of 50% (Chi-Square, p≦0.05) ([2]; 100 μg/dish, 0.75 hour): +
- percent of termites on untreated sand vs expected value of 50% (Chi-Square, p≦0.05) ([2]; 100 μg/dish, 1 hour): +
- percent of termites on untreated sand vs expected value of 50% (Chi-Square, p≦0.05) ([2]; 100 μg/dish, 2 hour): +
- percent of termites on untreated sand vs expected value of 50% (Chi-Square, p≦0.05) ([2]; 100 μg/dish, 3 hour): +
- concentration required for a significant effect of the treated sand on termite distribution ([2]; time periods greater than 1 hr): 100 μg/dish
- activity against ticks [3]: significant repellent and toxicant
- activity against ants [4]: significant repellent and toxicant
- activity against cockroaches [5]: repellent
